For the first test, the target named is T1, pY705-STAT3 in PBMC (Homo sapiens, UniProt P40763).
T1 construct: Cryopreserved Peripheral Blood Mononuclear Cells (PBMC) are from AllCells; host or cells: cryopreserved PBMC
T1 sequence (P40763 whole entry): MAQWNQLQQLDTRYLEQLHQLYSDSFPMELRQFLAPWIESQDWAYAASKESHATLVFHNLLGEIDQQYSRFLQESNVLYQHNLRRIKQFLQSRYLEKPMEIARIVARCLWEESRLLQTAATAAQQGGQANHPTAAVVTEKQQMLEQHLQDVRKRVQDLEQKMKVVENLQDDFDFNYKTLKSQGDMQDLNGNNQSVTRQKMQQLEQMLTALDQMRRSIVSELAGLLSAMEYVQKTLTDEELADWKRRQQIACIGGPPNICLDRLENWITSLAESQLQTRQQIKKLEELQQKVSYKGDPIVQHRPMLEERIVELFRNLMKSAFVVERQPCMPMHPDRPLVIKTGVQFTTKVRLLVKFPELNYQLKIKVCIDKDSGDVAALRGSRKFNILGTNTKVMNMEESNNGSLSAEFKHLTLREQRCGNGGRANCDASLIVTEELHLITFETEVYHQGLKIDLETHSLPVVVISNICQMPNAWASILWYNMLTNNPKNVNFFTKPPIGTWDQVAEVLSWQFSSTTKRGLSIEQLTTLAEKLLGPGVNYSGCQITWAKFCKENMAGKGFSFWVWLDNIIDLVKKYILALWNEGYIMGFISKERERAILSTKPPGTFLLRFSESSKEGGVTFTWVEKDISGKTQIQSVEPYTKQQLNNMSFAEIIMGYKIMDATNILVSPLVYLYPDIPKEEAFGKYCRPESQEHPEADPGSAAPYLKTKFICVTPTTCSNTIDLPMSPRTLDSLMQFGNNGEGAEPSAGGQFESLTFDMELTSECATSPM
Description: MSD-pSTAT-PBMC Assay (pSTAT3, IL-6 stimulated). The conditions noted are these: PBMC, compound 3 hrs, then 10 ng/mL IL-6 for 10 min; Table 115; read-out: STAT3. It is filed as cell-based. The essentials: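 PBMC (human, cryopreserved, overnight recovery) + cpd 3 hrs → IL-6 10 ng/mL (STAT3) or IL-4 1 ng/mL (STAT6) ×10 min → lysis with protease/phosphatase inhibitors → MSD capture/phospho detection. IC50, variable slope, DMSO-normalized.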
Regarding `CCCOC(=O)[C@H](C)NP(=O)(Oc1ccccc1)[C@H](F)c1ccc2sc(C(=O)N[C@H]3CCC[C@H]4CC[C@@H](C(=O)N5CC(c6cnccc6N6CC(C#N)C6)C5)N4C3=O)cc2c1` (stereo partly drawn) [Compound 1061, propyl (((S)-(2-(((3S,6S,9aS)-3-(3-(4-(3-cyanoazetidin-1-yl)pyridin-3-yl)azetidine-1-carbonyl)-5-oxooctahydro-1H-pyrrolo[1,2-a]azepin-6-yl)carbamoyl)benzo [b]thiophen-5-yl)fluoromethyl) (phenoxy)phosphoryl)-L-alaninate], the IC50 lay in the range of 100 to 1000 nM. Take `CCCOC(=O)[C@H](C)NP(=O)(Oc1ccccc1)[C@@H](F)c1ccc2sc(C(=O)N[C@H]3CCC[C@H]4CC[C@@H](C(=O)N5CC(c6cnccc6N6CC(OC)C6)C5)N4C3=O)cc2c1` (stereo partly drawn) [Compound 1062, propyl (((R)-fluoro(2-(((3S,6S,9aS)-3-(3-(4-(3-methoxyazetidin-1-yl)pyridin-3-yl)azetidine-1-carbonyl)-5-oxooctahydro-1H-pyrrolo[1,2-a]azepin-6-yl)carbamoyl)benzo [b]thiophen-5-yl)methyl)(phenoxy)phosphoryl)-L-alaninate]: the IC50 is 100 to 1000 nM. Consider `CCCOC(=O)[C@H](C)NP(=O)(Oc1ccccc1)[C@H](F)c1ccc2sc(C(=O)N[C@H]3CCC[C@H]4CC[C@@H](C(=O)N5CC(c6cnccc6N6CC(OC)C6)C5)N4C3=O)cc2c1` (stereo partly drawn) [Compound 1063, propyl (((S)-fluoro(2-(((3S,6S,9aS)-3-(3-(4-(3-methoxyazetidin-1-yl)pyridin-3-yl)azetidine-1-carbonyl)-5-oxooctahydro-1H-pyrrolo[1,2-a]azepin-6-yl)carbamoyl)benzo [b]thiophen-5-yl)methyl)(phenoxy)phosphoryl)-L-alaninate], for which the IC50 is < 100 nM. In the case of `CCCOC(=O)[C@H](C)NP(=O)(Oc1ccccc1)[C@@H](F)c1ccc2sc(C(=O)N[C@H]3CCC[C@H]4CC[C@@H](C(=O)N5CC(c6cnccc6N6CCOCC6)C5)N4C3=O)cc2c1` (stereo partly drawn) [Compound 1064, propyl (((R)-fluoro(2-(((3S,6S,9aS)-3-(3-(4-morpholinopyridin-3-yl)azetidine-1-carbonyl)-5-oxooctahydro-1H-pyrrolo[1,2-a]azepin-6-yl)carbamoyl)benzo [b]thiophen-5-yl)methyl)(phenoxy)phosphoryl)-L-alaninate], the IC50 is < 100 nM. Consider `CCCOC(=O)[C@H](C)NP(=O)(Oc1ccccc1)[C@H](F)c1ccc2sc(C(=O)N[C@H]3CCC[C@H]4CC[C@@H](C(=O)N5CC(c6cnccc6N6CCOCC6)C5)N4C3=O)cc2c1` (stereo partly drawn) [Compound 1065, propyl (((S)-fluoro(2-(((3S,6S,9aS)-3-(3-(4-morpholinopyridin-3-yl)azetidine-1-carbonyl)-5-oxooctahydro-1H-pyrrolo[1,2-a]azepin-6-yl)carbamoyl)benzo [b]thiophen-5-yl)methyl)(phenoxy)phosphoryl)-L-alaninate], for which the IC50 is < 100 nM.

Consider `CCCOC(=O)[C@H](C)NP(=O)(Oc1ccccc1)[C@@H](F)c1ccc2sc(C(=O)N[C@H]3CCC[C@H]4CC[C@@H](C(=O)N5CC(c6cncnc6N6CCOCC6)C5)N4C3=O)cc2c1` (stereo partly drawn) [Compound 1066, propyl (((R)-fluoro(2-(((3S,6S,9aS)-3-(3-(4-morpholino-pyrimidin-5-yl)azetidine-1-carbonyl)-5-oxooctahydro-1H-pyrrolo[1,2-a]azepin-6-yl)carbamoyl)benzo [b]thiophen-5-yl)methyl)(phenoxy)phosphoryl)-L-alaninate], for which the IC50 lay in the range of 100 to 1000 nM.

Regarding `CCCOC(=O)[C@H](C)NP(=O)(Oc1ccccc1)[C@H](F)c1ccc2sc(C(=O)N[C@H]3CCC[C@H]4CC[C@@H](C(=O)N5CC(c6cncnc6N6CCOCC6)C5)N4C3=O)cc2c1` (stereo partly drawn) [Compound 1067, propyl (((S)-fluoro(2-(((3S,6S,9aS)-3-(3-(4-morpholinopyrimidin-5-yl)azetidine-1-carbonyl)-5-oxooctahydro-1H-pyrrolo[1,2-a]azepin-6-yl)carbamoyl)benzo [b]thiophen-5-yl)methyl)(phenoxy)phosphoryl)-L-alaninate], the IC50 lay in the range of 100 to 1000 nM.

In the case of `CCCOC(=O)[C@H](C)NP(=O)(Oc1ccccc1)[C@H](F)c1ccc2sc(C(=O)N[C@H]3CCC[C@H]4CC[C@@H](C(=O)N5CC(c6cncnc6N(C)C)C5)N4C3=O)cc2c1` (some centres unmarked) [Compound 1068], the IC50 was < 100 nM. With `CCCOC(=O)[C@H](C)NP(=O)(Oc1ccccc1)[C@@H](F)c1ccc2sc(C(=O)N[C@H]3CCC[C@H]4CC[C@@H](C(=O)N5CC(c6cncnc6N(C)C)C5)N4C3=O)cc2c1` (some centres unmarked) [Compound 1069], the IC50 is < 100 nM. Turning to `CCCOC(=O)[C@H](C)NP(=O)(Cc1ccc2sc(C(=O)N[C@H]3CCC[C@H]4CC[C@@H](C(=O)N5CC(c6cncnc6N(C)C)C5)N4C3=O)cc2c1)Oc1ccccc1` (stereo partly drawn) [Compound 1070, propyl (((2-(((3S,6S,9aS)-3-(3-(4-(dimethylamino)pyrimidin-5-yl)azetidine-1-carbonyl)-5-oxooctahydro-1H-pyrrolo[1,2-a]azepin-6-yl)carbamoyl)benzo [b]thiophen-5-yl)methyl)(phenoxy)phosphoryl)-L-alaninate], the IC50 was < 100 nM.

For `CCCOC(=O)[C@H](C)NP(=O)(Oc1ccccc1)[C@@H](F)c1ccc2sc(C(=O)N[C@H]3CCC[C@H]4CC[C@@H](C(=O)N5CC(c6cncnc6N6CC[C@H]6COC)C5)N4C3=O)cc2c1` (stereo partly drawn) [Compound 1071, propyl (((R)-fluoro(2-(((3S,6S,9aS)-3-(3-(4-((S)-2-(methoxymethyl)azetidin-1-yl)pyrimidin-5-yl)azetidine-1-carbonyl)-5-oxooctahydro-1H-pyrrolo[1,2-a]azepin-6-yl)carbamoyl)benzo [b]thiophen-5-yl)methyl)(phenoxy)phosphoryl)-L-alaninate], the IC50 was < 100 nM. With `CCCOC(=O)[C@H](C)NP(=O)(Cc1ccc2sc(C(=O)N[C@H]3CCC[C@H]4CC[C@@H](C(=O)N5CC(c6cncnc6N6CC[C@H]6COC)C5)N4C3=O)cc2c1)Oc1ccccc1` (stereo partly drawn) [Compound 1072, propyl (((2-(((3S,6S,9aS)-3-(3-(4-((S)-2-(methoxymethyl)azetidin-1-yl)pyrimidin-5-yl)azetidine-1-carbonyl)-5-oxooctahydro-1H-pyrrolo[1,2-a]azepin-6-yl)carbamoyl)benzo [b]thiophen-5-yl)methyl)(phenoxy)phosphoryl)-L-alaninate], the IC50 is < 100 nM. As for `CCCOC(=O)[C@H](C)NP(=O)(Oc1ccccc1)[C@@H](F)c1ccc2sc(C(=O)N[C@H]3CCC[C@H]4CC[C@@H](C(=O)N5CC(c6cncc(F)c6OC)C5)N4C3=O)cc2c1` (stereo partly drawn) [Compound 1073, propyl (((R)-fluoro(2-(((3S,6S,9aS)-3-(3-(5-fluoro-4-methoxypyridin-3-yl)azetidine-1-carbonyl)-5-oxooctahydro-1H-pyrrolo[1,2-a]azepin-6-yl)carbamoyl)benzo [b]thiophen-5-yl)methyl)(phenoxy)phosphoryl)-L-alaninate], the IC50 is 100 to 1000 nM. For `CCCOC(=O)[C@H](C)NP(=O)(Cc1ccc2sc(C(=O)N[C@H]3C[C@@H](C)C[C@H]4CC[C@@H](C(=O)N5CC(c6cncnc6N6CCC6)C5)N4C3=O)cc2c1)Oc1ccccc1` (stereo partly drawn) [Compound 1074, propyl (((2-(((3S,6S,8R,9aR)-3-(3-(4-(azetidin-1-yl)pyrimidin-5-yl)azetidine-1-carbonyl)-8-methyl-5-oxooctahydro-1H-pyrrolo[1,2-a]azepin-6-yl)carbamoyl)benzo [b]thiophen-5-yl)methyl)(phenoxy)phosphoryl)-L-alaninate], the IC50 is < 100 nM.

In the case of `CCCOC(=O)[C@H](C)NP(=O)(Oc1ccccc1)[C@@H](F)c1ccc2sc(C(=O)N[C@H]3CCC[C@H]4CC[C@@H](C(=O)N5CC(c6cncnc6N6CCC6)C5)N4C3=O)cc2c1` (some centres unmarked) [Compound 1075], the IC50 was < 100 nM. `CCCOC(=O)[C@H](C)NP(=O)(Oc1ccccc1)[C@H](F)c1ccc2sc(C(=O)N[C@H]3CCC[C@H]4CC[C@@H](C(=O)N5CC(c6cncnc6N6CCC6)C5)N4C3=O)cc2c1` (some centres unmarked) [Compound 1076]: the IC50 was < 100 nM. In the case of `CCCOC(=O)[C@H](C)NP(=O)(Oc1ccccc1)[C@@H](F)c1ccc2sc(C(=O)N[C@H]3C[C@@H](C)C[C@H]4CC[C@@H](C(=O)N5CC(c6cncnc6N6CCC6)C5)N4C3=O)cc2c1` (some centres unmarked) [Compound 1077], the IC50 is < 100 nM. In the case of `CCCOC(=O)[C@H](C)NP(=O)(Oc1ccccc1)[C@H](F)c1ccc2sc(C(=O)N[C@H]3C[C@@H](C)C[C@H]4CC[C@@H](C(=O)N5CC(c6cncnc6N6CCC6)C5)N4C3=O)cc2c1` (some centres unmarked) [Compound 1078], the IC50 is < 100 nM. Take `CC(C)CC(=O)SCCOP(=O)(Cc1ccc2sc(C(=O)N[C@H]3CCC[C@H]4CC[C@@H](C(=O)N5CC(c6cccnc6)C5)N4C3=O)cc2c1)OCCSC(=O)CC(C)C` [Compound 1084, S,S′-(((((2-(((3S,6S,9aS)-5-oxo-3-(3-(pyridin-3-yl)azetidine-1-carbonyl)octahydro-1H-pyrrolo[1,2-a]azepin-6-yl)carbamoyl)benzo [b]thiophen-5-yl)methyl)phosphoryl)bis(oxy))bis(ethane-2,1-diyl)) bis(3-methylbutanethioate)]: the IC50 was 100 to 1000 nM.

The same test, now with this note: STAT3, PBMC, compound 3 hrs, then 10 ng/mL IL-6 for 10 min; Table 115.
As to `CCCOC(=O)[C@H](C)NP(=O)(Cc1ccc2sc(C(=O)N[C@H]3C[C@H](C)C[C@H]4CC[C@@H](C(=O)N5CC(c6cnccc6N(C)C)C5)N4C3=O)cc2c1)Oc1ccccc1` (stereo partly drawn) [Compound 1079, propyl (((2-(((3S,6S,8S,9aR)-3-(3-(4-(dimethylamino)pyridin-3-yl)azetidine-1-carbonyl)-8-methyl-5-oxooctahydro-1H-pyrrolo[1,2-a]azepin-6-yl)carbamoyl)benzo [b]thiophen-5-yl)methyl)(phenoxy)phosphoryl)-L-alaninate], the IC50 was < 100 nM.

The values above are taken from patent US20250215029A1 (Recludix Pharma, Inc., priority 2022, published 2025).
